Data as given in patent publication US20090221624A1, “4-AMINOQUINOLINE COMPOUNDS FOR TREATING VIRUS-RELATED CONDITIONS” (priority 2005, published 2009).

How the values were obtained:
[1] = tested on: HCV replicon (Clone A cells, Huh7, subgenomic hepatits C virus RNA); test: HCV Neo screening assay (HCV replicon, NPTII ELISA); format: cell-based, hepatitis C virus; settings: for inhibition at 25 µM / EC50: Hepatitis C virus, Huh-7; for inhibition at 25 µM: primary screening, 25 μM final concentration, 24 hours, percent inhibition of viral replication, read-out: HCV Inh; for EC50: Secondary Data, HCV; for HCV TI: therapeutic index CC50/EC50, HCV
SINV (SR19-F-luc cells) = test: SINV antiviral activity, SR19-F-luc cells, Firefly luciferase; format: cell-based; settings: Sindbis virus; for inhibition at 25 µM: primary screening, 25 μM final concentration, 24 hours, percent inhibition of viral replication, read-out: SINV Inh; for EC50: secondary screening, SR19-F-luc cells
YFV (YF-hRuPac cells) = test: microbe, parasite or virus in culture; format: cell-based, yellow fever virus; settings: for inhibition at 25 µM / EC50: Yellow fever virus; for inhibition at 25 µM: 24 h, read-out: YFV Inh; for EC50: read-out: YFV EC50
RSV minigenome = test: RSV minigenome-dependent β-galactosidase expression assay (RSV β-Gal); format: cell-based, respiratory syncytial virus; settings: for EC50 / inhibition at 25 µM: human respiratory syncytial virus; for EC50: Secondary Data, RSV, read-out: RSV EC50; for inhibition at 25 µM: primary screening, 25 μM final concentration, 24 hours, percent inhibition of viral replication, read-out: RSV Inh; for RSV TI: therapeutic index CC50/EC50, RSV
DNG (D2-hRuPac cells) = test: DNG antiviral activity, D2-hRuPac cells, Renilla luciferase; format: cell-based, Dengue fever virus; settings: Dengue virus, secondary screening
EBOV minigenome = test: microbe, parasite or virus in culture; format: cell-based, Ebola virus; settings: Zaire ebolavirus; for inhibition at 25 µM: 24 h, read-out: EBOV Inh; for EC50: read-out: EBOV EC50
WNV (WN-hRuPac cells) = test: WNV antiviral activity, WN-hRuPac cells, Renilla luciferase; format: cell-based, West Nile virus; settings: for EC50 / inhibition at 25 µM: West Nile virus; for EC50: Secondary Data, WNV, read-out: WNV EC50; for inhibition at 25 µM: primary screening, 25 μM final concentration, 24 hours, percent inhibition of viral replication, read-out: WNV Inh; for WNV TI: therapeutic index CC50/EC50, WNV

SMILES | inhibition at 25 µM [1] [%] | inhibition at 25 µM (SINV (SR19-F-luc cells)) [%] | EC50 (SINV (SR19-F-luc cells)) [µM] | YFV TI (YFV (YF-hRuPac cells)) | inhibition at 25 µM (YFV (YF-hRuPac cells)) [%] | EC50 (YFV (YF-hRuPac cells)) [µM] | EC50 (RSV minigenome) [µM] | inhibition at 25 µM (RSV minigenome) [%] | RSV TI (RSV minigenome) | EC50 (DNG (D2-hRuPac cells)) [µM] | inhibition at 25 µM (EBOV minigenome) [%] | CC50 (in vitro; DNG CC50) [µM] | CC50 (in vitro; EBOV CC50) [µM] | CC50 (in vitro; HCV CC50) [µM] | CC50 (in vitro; RSV CC50) [µM] | CC50 (in vitro; SINV CC50) [µM] | CC50 (in vitro; WNV CC50) [µM] | CC50 (in vitro; YFV CC50) [µM] | EC50 (WNV (WN-hRuPac cells)) [µM] | inhibition at 25 µM (WNV (WN-hRuPac cells)) [%] | also measured
CCOC(=O)c1cnc2c(C(F)(F)F)cccc2c1Nc1ccc(S(=O)(=O)Nc2nc(C)cc(C)n2)cc1 [Compound 72] | -24.8 | -4.36 | 37.1 | 3.59 | 90 | 20.9 | 41.7 | 50.3 | 1.8 | 12 | 86 | ≥ 75 | ≥ 75 | ≥ 75 | ≥ 75 | ≥ 75 | ≥ 75 | ≥ 75 | 13.3 | 83.2 | EC50 (EBOV minigenome): 17.3 µM; WNV TI (WNV (WN-hRuPac cells)): 5.64
CCOC(=O)c1ccc(Nc2cc(C)nc3c2ccc2ccccc23)cc1 [Compound 4] | 105 | -22.2 | ≥ 75 | 17.1 | 81.7 | 4.26 | 37 | 47.7 | 1.97 | 32.7 | 6.57 | 72.9 | 72.9 | 32.5 | 72.9 | 72.9 | 72.9 | 72.9 | ≥ 75 | 28.4 | EC50 [1]: 15.6 µM; HCV TI [1]: 2.08; EC50 (EBOV minigenome): 59.3 µM; WNV TI (WNV (WN-hRuPac cells)): 0.97
CCOC(=O)c1cnc2ccc(C)cc2c1NCc1ccco1 [Compound 39] | 22.4 | 71.9 | ≥ 75 | 8.95 | 96.6 | 3.01 | 1.47 | 91.6 | 18.33 | 7.1 | 64.1 | 26.9 | 26.9 | ≥ 75 | 26.9 | 26.9 | 26.9 | 26.9 | 5.46 | 102 | EC50 (EBOV minigenome): 7.22 µM; WNV TI (WNV (WN-hRuPac cells)): 4.94
COc1cccc2c(Nc3cccc([N+](=O)[O-])c3)cc(C)nc12 [Compound 25] | 159 | 99.8 | 2.13 | 6.25 | 100 | 3.67 | 4.73 | 99.9 | 4.85 | 3.89 | 99.4 | 22.9 | 22.9 | 12.7 | 22.9 | 22.9 | 22.9 | 22.9 | 3.18 | 100 | EC50 [1]: 4.85 µM; HCV TI [1]: 2.62; EC50 (EBOV minigenome): 75 µM; WNV TI (WNV (WN-hRuPac cells)): 7.22
COC(=O)c1ccc2nc(C)cc(Nc3cccc(O)c3)c2c1 [Compound 73] | 89.5 | 80.8 | 5.99 | 1.79 | 51.8 | 40.3 | 28.9 | 63.1 | 2.5 | 16.8 | 62.1 | 72.3 | 72.3 | 35.2 | 72.3 | 72.3 | 72.3 | 72.3 | 25.8 | 31.5 | EC50 [1]: 2.32 µM; HCV TI [1]: 15.17; WNV TI (WNV (WN-hRuPac cells)): 2.8
CCOc1ccc2nc(C)cc(Nc3ccc(N(C)C)cc3)c2c1 [Compound 57] | 136 | 87.7 | 3.97 | 11.24 | 95.8 | 2.76 | 4.56 | 97.9 | 6.8 | 6.28 | 70.8 | 31 | 31 | 4.23 | 31 | 31 | 31 | 31 | 3.6 | 85.7 | EC50 [1]: 4.98 µM; HCV TI [1]: 0.85; EC50 (EBOV minigenome): 75 µM; WNV TI (WNV (WN-hRuPac cells)): 8.62
